The subject of data set [1] is HepG2. As to the kind of experiment: Effect on triglyceride biosynthesis in human HepG2 cells at 30 uM. The class given is functional, cell-based.
The test system of data set [2] is HepG2. The experiment in a line: Effect on sterol biosynthesis in human HepG2 cells at 30 uM. The class given is functional, cell-based.
The nature of data set [3]: Cytotoxicity against human HepG2 cells assessed as cell viability after 48 hrs by MTT assay. The class given is cell-based. More on the design: concentration or dose not given beside the values. As to conditions: read-out: Activity.
Data set [4] relates to HepG2. The experiment in a line: Stimulation of triglyceride biosynthesis in human HepG2 cells incubated at 5 uM for 14 hrs followed by sodium [14C]-acetate addition measured after 4 hrs. The class given is functional, cell-based.
The subject of data set [5] is HepG2. The experiment in a line: Reduction in cholesterol biosynthesis in human HepG2 cells incubated at 5 uM for 14 hrs followed by sodium [14C]-acetate addition measured after 4 hrs. It is filed as functional, cell-based.
The subject of data set [6] is HepG2. The experiment in a line: Stimulation of triglyceride biosynthesis in human HepG2 cells incubated at 2 uM for 14 hrs followed by sodium [14C]-acetate addition measured after 4 hrs. The class given is functional, cell-based.
Data set [7] relates to HepG2. The experiment in a line: Cytotoxicity against human HepG2 cells assessed as cell viability up to 2 uM after 48 hrs by MTT assay. As to conditions: hepg2, 48 h. It is filed as cell-based. Background: Tetrazolium dyes change colour on reduction, which living cells bring about.
Data set [8] has as its system HepG2. As to the kind of experiment: Reduction in cholesterol biosynthesis in human HepG2 cells incubated at 2 uM for 14 hrs followed by sodium [14C]-acetate addition measured after 4 hrs. It is filed as functional, cell-based.

The source made the active and inactive calls. No cut-off for these calls is given here. A value given as a limit tells only on which side of the number the result lay.

For `C[C@]12CC[C@H](O)CC1=CC[C@@H]1[C@@H]2CC[C@]2(C)/C(=C/C(=O)NC(CO)(CO)CO)CC[C@@H]12`, the outcome in the data set on HepG2 [1] and with HepG2 [2] was inactive. The viability at 48 h in data set [3] was > 70%.
Turning to `C[C@]12CC[C@H](O)CC1=CC[C@@H]1[C@@H]2CC[C@]2(C)/C(=C\C(=O)NCCO)CC[C@@H]12`, the result in the data set on HepG2 [4], in the data set on HepG2 [1], in the data set on HepG2 [5] and in the data set with HepG2 [2] was inactive. For the same compound, the viability at 48 h in data set [3] was > 70%.
In the case of `C[C@]12CC[C@H](O)CC1=CC[C@@H]1[C@@H]2CC[C@]2(C)/C(=C\C(=O)NC(CO)(CO)CO)CC[C@@H]12`, the outcome with HepG2 [4], in the data set on HepG2 [1], in the data set with HepG2 [5] and in the data set with HepG2 [2] was inactive. In addition, the viability at 48 h in data set [3] was > 70%.
`CC(C)(CO)NC(=O)/C=C1\CC[C@H]2[C@@H]3CC=C4C[C@@H](O)CC[C@]4(C)[C@H]3CC[C@]12C`: the result with HepG2 [1] and in the data set on HepG2 [2] was inactive. Moreover, the viability at 48 h in data set [3] was > 70%.
Take `CC(CO)(CO)NC(=O)/C=C1\CC[C@H]2[C@@H]3CC=C4C[C@@H](O)CC[C@]4(C)[C@H]3CC[C@]12C`: the outcome in the data set with HepG2 [1] and in the data set with HepG2 [2] was inactive. Further, in data set [3], the viability at 48 h was > 70%.
For the compound `CC(C)CCNC(=O)/C=C1/CC[C@H]2[C@@H]3CC=C4C[C@@H](O)CC[C@]4(C)[C@H]3CC[C@]12C`, the result in the data set with HepG2 [4], in the data set on HepG2 [1], in the data set on HepG2 [5] and in the data set on HepG2 [2] was inactive. Also, the viability at 48 h in data set [3] was > 70%.
On to `C[C@]12CC[C@H](O)CC1=CC[C@@H]1[C@@H]2CC[C@]2(C)/C(=C/C(=O)NCCO)CC[C@@H]12`, for which the result in the data set on HepG2 [4] and with HepG2 [5] was Active. Moreover, the result with HepG2 [1] and with HepG2 [2] was inactive. Further, the viability at 48 h in data set [3] is > 70%.
Take `CC(C)CCNC(=O)/C=C1\CC[C@H]2[C@@H]3CC=C4C[C@@H](O)CC[C@]4(C)[C@H]3CC[C@]12C`: the result with HepG2 [4] and with HepG2 [5] was Active. Moreover, the outcome in the data set with HepG2 [1] and in the data set on HepG2 [2] was inactive. Also, the viability at 48 h in data set [3] was > 70%.
`CC(CO)(CO)NC(=O)/C=C1/CC[C@H]2[C@@H]3CC=C4C[C@@H](O)CC[C@]4(C)[C@H]3CC[C@]12C`: the result in the data set with HepG2 [4], in the data set with HepG2 [1], in the data set with HepG2 [5] and in the data set on HepG2 [2] was inactive. Further, the viability at 48 h in data set [3] is > 70%.
As for `CC(C)(CO)NC(=O)/C=C1/CC[C@H]2[C@@H]3CC=C4C[C@@H](O)CC[C@]4(C)[C@H]3CC[C@]12C`, the result with HepG2 [4], in the data set on HepG2 [1], in the data set with HepG2 [5] and in the data set on HepG2 [2] was inactive. In data set [3], the viability at 48 h is > 70%.
On to `C[C@H](CCCC(C)(C)O)[C@H]1CC[C@H]2[C@@H]3CC=C4C[C@@H](O)CC[C@]4(C)[C@H]3CC[C@]12C`, for which the outcome in the data set with HepG2 [6] and in the data set on HepG2 [8] was Active. Besides, the Activity result in the data set with HepG2 [7] was “Non-toxic”. Also, the outcome with HepG2 [1] and in the data set on HepG2 [2] was inactive. Further, the viability at 48 h in data set [3] was > 70%.
With `COC(=O)CNC(=O)/C=C1\CC[C@H]2[C@@H]3CC=C4C[C@@H](O)CC[C@]4(C)[C@H]3CC[C@]12C`, the result in the data set on HepG2 [4] was Active. Further, the result with HepG2 [1], with HepG2 [5] and in the data set on HepG2 [2] was inactive. In addition, the viability at 48 h in data set [3] is > 70%.
With `CN(C)C(=O)CNC(=O)/C=C1\CC[C@H]2[C@@H]3CC=C4C[C@@H](O)CC[C@]4(C)[C@H]3CC[C@]12C`, the outcome in the data set on HepG2 [4] and in the data set with HepG2 [5] was Active. Further, the outcome in the data set with HepG2 [1] and with HepG2 [2] was inactive. Also, in data set [3], the viability at 48 h is > 70%.

These data come from ChEMBL document CHEMBL2346612, “Pregna-5,17(20)-dien-21-oyl amides affecting sterol and triglyceride biosynthesis in Hep G2 cells” (Bioorg Med Chem Lett, 2013).
